# In patent US20250011809A1, “VIRAL VECTOR PRODUCTION” (Cell Therapy Catapult Limited, priority 2021, published 2025):
# Several values for one entry are separate records, joined by “and”; a condition that tells them apart may be missing. Equal values may be shown once. Ends that are not written are not given here.
# Tests used:
# Type in all cases: cell-based, human
# [1] = system: HEK293-F cells; assay: HEK293-F cell count and viability by flow cytometry after transfection in suspension culture (Example 5); set-up: viability at 24 h / viability at 48 h / viability at 72 h: concentration or dose not given beside the values
# Description: (§1) HEK293-F cells were seeded into shake flasks with a 20 mL serum-free BalanCD medium at working volume at a cell concentration of 1×10^6/mL for lentiviral production and 2×10^6/mL for AAV production. Transfection with the plasmids for AAV1, AAV2, LV (two experimental replicates, LV1 and LV2) were carried out using PEI-Pro or RALA peptides as set out in Table 8 below.
# (§2) The HEK293-F cell counts were determined using flow cytometry immediately prior to transfection, and then at 24 hrs, 48 hrs and 72 hrs post transfection.
# [2] = as above; set-up: viability at 24 h / viability at 48 h / viability at 72 h: concentration or dose not given beside the values; conditions: human, HEK293-F cells in suspension culture (shake flasks); for viability at 24 h: 24 h post-transf; for viability at 48 h: 48 h post-transf; for viability at 72 h: 72 h post-transf
# Description: as §1, §2
# [3] = system: HEK293 cells; assay: Viability of adherent HEK293 cells after transfection with GFP reporter plasmid (Example 1); conditions: 3 days after transfection with 50 ng GFP plasmid; RALA N:P10, PEIpro 3:1; FIG. 1
# Description: HEK293 cells were seeded at a density of 1×10^5 cells per well on 24 well plates. 24 hrs later, cells were transfected with 50 ng of plasmid encoding a GFP reporter gene, either complexed with RALA (SEQ ID NO: 1) at N:P10 (14.5 μg of RALA is complexed per 1 μg of DNA) or using PEIpro at a 3:1 ratio. The cells were stained to assess cell viability after 3 days.
# [4] = AAV1 plasmids, 24 h post-transf
# [5] = AAV1 plasmids, 48 h post-transf
# [6] = AAV1 plasmids, 72 h post-transf
# [7] = AAV2 plasmids, 24 h post-transf
# [8] = AAV2 plasmids, 48 h post-transf
sequence,measurement,setting,value
WEARLARALARALARHLARALARALRACEA [RALA],Count,[1]; [4],3.63E+06 and 3.52E+06
same,Via %,[1]; [4],88.2%
same,Count,[1]; [5],4.14E+06 and 3.39E+06
same,Via %,[1]; [5],83.9%
same,Count,[1]; [6],5.82E+06 and 5.55E+06
same,Via %,[1]; [6],82.5%
same,Count,[1]; [7],3.57E+06 and 3.37E+06
same,Via %,[1]; [7],89.1%
same,Count,[1]; [8],3.81E+06 and 4.07E+06
same,Via %,[1]; [8],84.8%
same,Via %,"[1]; AAV2 plasmids, 72 h post-transf",76.5%
same,Count,"[1]; LV plasmids, 24 h post-transf",2.31E+06 and 2.05E+06
same,Via %,"[1]; LV plasmids, 24 h post-transf",92.7%
same,Count,"[1]; LV plasmids, 48 h post-transf",3.42E+06 and 2.83E+06
same,Via %,"[1]; LV plasmids, 48 h post-transf",88.6%
same,Via %,"[1]; LV plasmids, 72 h post-transf",89.6% and 86%
same,viability at 24 h,[2]; AAV1 plasmids,90%
same,viability at 48 h,[2]; AAV1 plasmids,86.1%
same,viability at 72 h,[2]; AAV1 plasmids,83.1%
same,viability at 24 h,[2]; AAV2 plasmids,87.7%
same,viability at 48 h,[2]; AAV2 plasmids,81.6%
same,viability at 72 h,[2]; AAV2 plasmids,76%
same,viability at 24 h,[2]; LV plasmids,92%
same,viability at 48 h,[2]; LV plasmids,92%
same,viability of adherent HEK293 cells,[3],significantly greater
